Patent US20240033277A1, “METHODS FOR TREATING AUTOIMMUNE DISEASES” (NEW YORK SOCIETY FOR THE RELIEF OF THE RUPTURED AND …, priority 2020, published 2024)
Entries after “also recorded” stand apart in the source; their conditions may differ.

Columns and labels:
[1] = test system: pDCs; experiment: Intracellular ATP in pDCs (ATP determination kit); type: cell-based, human; details: then TLR9 agonist
Method: (§1) Supernatants were removed, and cells were deproteinated in 0.5 ml of 0.5M MPA on ice for 5 min, followed by centrifugation at 10000×g for 5 min at 4° C. The deproteinated samples were neutralized with 25 μl of potassium carbonate, and then centrifugation at 10000×g for 5 min at 4° C. The supernatant was removed and deproteinated samples were used for pyruvate assay. For ATP determination, ATP determination kit (Sigma: A22066) was used in pDCs extracts as per the manufacture protocol.

[2] = test system: pDCs; experiment: Serine biosynthesis gene expression (PHGDH, PSAT1, PSPH; Q-PCR) in pDCs; type: cell-based, human
[3] = test system: TLR9-activated pDCs; experiment: IFNA gene expression (Q-PCR) in pDCs activated with TLR9 agonist CpG-C274; type: cell-based, human; details: for IFNA expression in TLR9-activated pDCs under ER stress plus IRE1α inhibitor: TM or TG with MKC8866 at 1 μM or 4μ8c at 10 μM for 3 h, FIGS. 1F, 1G, 6C, 6D; for IFNA (IFN-I) expression in TLR9-activated pDCs: UK5099 at 10, 20, and 40 μM or CB839 at 0.5 μM for 1 h, FIGS. 11B-11C
[4] = test system: IRE1α-XBP1 signaling in pDCs; experiment: XBP1 splicing (Q-PCR) in pDCs; type: cell-based, human
[5] = test system: pDCs of SSc patients; experiment: Secreted CXCL4 (ELISA) from pDCs of patients with SSc; type: cell-based, human; details: CPI-613 at 200 μM for 13 h, FIG. 4H
[6] = test system: TLR9-activated pDCs; experiment: Secreted IFN-α (ELISA) from pDCs activated with TLR9 agonist; type: cell-based, human
[7] = test system: TLR9-activated pDCs; experiment: IFN-I gene and interferon-stimulated gene (ISG) expression in TLR9-activated pDCs (RNA-seq, Q-PCR); type: cell-based, human; details: CPI-613 at 100 & 200 μM for 1 h, then TLR9 agonist for 5 h; FIGS. 8A-8E
[8] = test system: pDCs; experiment: Cell viability of pDCs by flow cytometry (DAPI); details: CPI-613 at 100 & 200 μM for 1 h, then TLR9 agonist for 5 h; FIG. 8F
Method: (§2) After 6-8 h of cell culture, pDCs were washed in PBS and then resuspending in FACS buffer and stained with DAPI. Cells were acquired by a fluorescence activated cell sorter (FACS) and analysis was performed using FlowJo analysis software. The gating strategy for viable cells involved progressively measuring total cells without uptake of DAPI.
(§3) Cell viability using Flow cytometry. After 6 h of cell culture, pDCs were washed in PBS and then resuspended in FACS buffer and stained with DAPI. Cells were acquired by a fluorescence activated cell sorter (FACS) and analysis was performed using FlowJo analysis software. The gating strategy for viable cells involved progressively measuring total cells without uptake of DAPI.

[9] = test system: pDCs of SSc patients; experiment: IFN-inducible gene expression in pDCs of patients with SSc; type: cell-based, human; details: CPI-613 at 200 μM for 13 h; FIG. 4G
[10] = test system: pDCs; experiment: Intracellular pyruvate in pDCs (pyruvate detection kit); type: cell-based, human; details: then TLR9 agonist for 2.5 h, FIGS. 2K, 2L
Method: as §1, with “Intracellular pyruvate were determined in pDCs by pyruvate detection kit (Cayman chemicals: 700470) as per the manufacture protocol. pDC cultured in RPMI medium were washed in 1 ml of PBS and centrifuged at 10000×g for 5 min at 4° C. Supernatants” for “Supernatants”

[11] = test system: TLR9-activated pDCs; experiment: IL-6 gene expression (Q-PCR) in TLR9-activated pDCs; type: cell-based, human; details: TM or TG for 3 h, then TLR9 agonist; quantified at 5 h; FIG. 5F
[12] = test system: pDCs; experiment: UPR and ER stress gene expression in pDCs (RNA-seq, Q-PCR); type: cell-based, human
[13] = test system: pDCs
Method: as §2, §3

[14] = test system: pDCs; experiment: IFN-α expression in pDCs cultured with ER stress inducers alone; type: cell-based, human; details: TM at 3 μg/ml or TG at 0.5 μM, no TLR agonist; FIGS. 1A, 1B
[15] = then CpG-C274 0.075 μM, 5 h, normalized to TLR9 agonist

## O=C(O)CCCCC(CCSCc1ccccc1)SCc1ccccc1 (stereo not drawn) [CPI-613, 6,8-bis-benzylthio-octanoic acid]
[1]; CPI-613 at 100 μM & 200 μM for 1 h, 4 h, normalized to medium, FIG. 3L
  intracellular ATP levels in TLR9-activated pDCs: reduced
[2]; CPI-613 at 100 & 200 μM for 1 h, then TLR9 agonist for 5 h, FIG. 8H
  effect on expression of PHGDH: no effect
[3]; CPI-613 at 100 μM & 200 μM for 1 h, then TLR9 agonist, 5 h, FIG. 3J
  IFNA expression in TLR9-activated pDCs: inhibited; also recorded: reduces
[4]; CPI-613 at 100 & 200 μM for 1 h, then TLR9 agonist for 5 h, FIG. 8G
  effect on XBP1 splicing: no effect
[5]
  secretion of CXCL4: no effect
[6]; CPI-613 at 100 μM & 200 μM for 1 h, then TLR9 agonist, 13 h, FIG. 3K
  secretion of IFN-α by TLR9-activated pDCs: inhibited
[6]; CPI-613 at 200 μM for 1 h, then TLR9 agonist with CXCL4, 13 h ELISA, FIG. 4F
  induction of IFN-α by TLR9-stimulated pDCs in the presence of CXCL4: abrogated
[7]
  expression of ISGs such as GBP1, IRF7, ISG54, MxB, CXCL10: inhibited
[8]
  effect on cell viability: no effect
[9]
  expression of IFN-inducible genes (GBP1, IRF7, ISG54, MxB, OAS2) by pDCs of SSc patients: drastically reduced

## Cc1cc(=O)oc2c(C=O)c(O)ccc12 [4μ8c]
[3]; then TLR9 agonist, 5 h
  IFNA expression in TLR9-activated pDCs under ER stress plus IRE1α inhibitor: prevented ER stress-driven inhibition of IFN-α

## Cc1ccc(OCCN(C)C(=O)Cn2cc(NC(=O)CCOc3ccccc3)cn2)cc1 [IXA4]
[2]; IXA4 at 30 μM for 6 h, normalized to medium, FIG. 2F
  PHGDH gene expression: conversely induced
[3]; IXA4 at 10 μM & 30 μM for 1 h, then TLR9 agonist, 5 h, FIG. 1I
  IFNA expression in TLR9-activated pDCs: abrogated
[4]; IXA4 at 10 μM & 30 μM for 6 h, FIG. 1H
  XBP1 splicing: enhanced

## C/C=C(/C)C(=O)O[C@H]1C(C)=C2[C@H]([C@@H]1OC(=O)CCCCCCC)[C@@](C)(OC(C)=O)C[C@H](OC(=O)CCC)[C@@]1(O)[C@H]2OC(=O)[C@@]1(C)O [thapsigargin, Thapsigargin]
[10]; TM or TG for 3 h
  intracellular pyruvate levels in ER stressed-pDCs: significantly reduced
[11]
  effect on IL-6 expression: negligible effects
[12]; pDCs from HDs cultured 8 h, TM at 3 μg/ml or TG at 0.5 μM vs media alone, FIGS. 5A-5D
  induction of the unfolded protein response (UPR), RNA-seq: strong induction
[13]
  effect on viability: negligible effects
[1]; TM or TG for 3 h, 2.5 h, normalized to medium, FIGS. 3E-3H
  intracellular ATP levels under ER stress: reduced
[2]; TM or TG for 3 h, followed by TLR9 agonist for 5 h, FIG. 2D
  PHGDH gene expression: markedly induced
[2]; TM or TG for 3 h, followed by TLR9 agonist for 5 h, FIGS. 2D, 7C, 7D
  serine biosynthesis gene expression (PHGDH, PSAT1, PSPH), irrespective of TLR9 signaling: induction
[3]; TM 3 μg/ml or TG 0.5 μM for 3 h, then CpG-C274 0.075 μM, quantified at 5 h, normalized to TLR9 agonist, FIG. 1A
  expression levels of IFNA in response to TLR9: drastically inhibited
[14]
  capacity to express IFN-α with ER stress inducer alone: not impacted

## COc1cc2c(C)c(CC(=O)N3CCOCC3)c(=O)oc2c(C=O)c1O [MKC8866]
[3]; then TLR9 agonist, 5 h
  IFNA expression in TLR9-activated pDCs under ER stress plus IRE1α inhibitor: prevented ER stress-driven inhibition of IFN-α

## N#C/C(=C\c1cn(-c2ccccc2)c2ccccc12)C(=O)O [UK5099]
[3]; [15]
  IFNA (IFN-I) expression in TLR9-activated pDCs: Inhibit

## CC(=O)C(=O)[O-].[Na+] [pyruvate, sodium pyruvate]
[1]; TM or TG with pyruvate 10 mM or α-KG 10 mM for 3 h, 2.5 h, FIGS. 3E-3H
  intracellular ATP levels under ER stress with metabolite supplementation: restored
[3]; TM or TG with sodium pyruvate 10 mM or α-KG 10 mM for 3 h, then TLR9 agonist, 5 h, FIGS. 3A-3D
  IFNA expression by TLR9-activated pDCs under ER stress with metabolite supplementation: sufficient to restore

## N[C@@H](CO)C(=O)O [L-serine]
[6]; L-serine 1 mg/ml for 1 h, then TLR9 agonist, 13 h, FIG. 2J
  IFN-α secretion by TLR9-activated pDCs: unaltered

## O=C(Cc1cccc(OC(F)(F)F)c1)Nc1ccc(CCCCc2nnc(NC(=O)Cc3ccccn3)s2)nn1 [CB839]
[3]; [15]
  IFNA (IFN-I) expression in TLR9-activated pDCs: Inhibit

## Cc1cc(C)nc(NC(=S)N2CCN(Cc3ccc(C(F)(F)F)cc3)CC2)c1 [NCT-503]
[10]; TM or TG with NCT-503 at 2 μM for 3 h
  intracellular pyruvate levels in ER stressed-pDCs plus PHGDH inhibitor: restored
[1]; tunicamycin with NCT-503 at 2 μM for 3 h, 2.5 h, FIG. 3I
  intracellular ATP levels under ER stress plus PHGDH inhibitor: restored
[3]; TM or TG with NCT-503 at 2 μM for 3 h, then TLR9 agonist, 5 h, FIGS. 2H, 2I
  IFNA expression by TLR9-activated pDCs facing ER stress plus PHGDH inhibitor: restored

B1: CXCL4: chemokine CXCL4 (Sigma: SRP3142) added to pDC culture at 3 μg/ml (protein, UniProt P02776 32-101, looked up)
Platelet factor 4: EAEEDGDLQCLCVKTTSQVRPRHITSLEVIKAGPHCPTAQLIATLKNGRKICLDLQAPLYKKIIKKLLES
[12]; tunicamycin 3 h, then TLR9 agonist with CXCL4 3 μg/ml, 5 h, FIG. 4D
  expression of UPR genes (XBP1, spliced XBP1, HSPA5, DNAJB9) facing ER stress: significant decrease
[2]; tunicamycin 3 h, then TLR9 agonist with CXCL4 3 μg/ml, 5 h, FIG. 4E
  PHGDH upregulation under ER stress: dampened
[3]; tunicamycin 3 h, then TLR9 agonist with CXCL4 3 μg/ml, 5 h, FIG. 10A
  IFN-α expression by TLR9-activated pDCs undergoing ER stress: restore
[6]; tunicamycin 3 h, then TLR9 agonist with CXCL4 3 μg/ml, 13 h, FIG. 4C
  IFN-α secretion by TLR9-activated pDCs undergoing ER stress: restore
